# Source: patent US6391614B1, “Auxiliary gene and protein of methicillin resistant bacteria and antagonists thereof” (priority 1995, dated 2002)
# Like-named read-outs stand apart in the source and are kept apart here.
# Experiments:
# SWTD3 (RUSA315/pGCSW-3) [1] = assay: Standard disk susceptibility, transductant SWTD3; type: cell-based, Staphylococcus aureus; conditions: SWTD3 versus recipient RUSA315; FIG. 5
# Description: (§1) Susceptibility testing and population analysis. One colony of bacterial strain was inoculated into 5 ml of TSB (tryptic soy broth, Difco Laboratories) and incubated at 37° C. with 200 rpm rotation for overnight. Culture density (OD600) was adjusted to give a viable titer of 10^8 to 10^9 cfu/ml. Sterile swabs were dipped into the bacterial suspension and applied to TSA (tryptic soy agar, Difco Laboratories) plates without antibiotics, and 6-mm-diameter disks containing antibiotics were applied to the plates with a disk dispenser (BBL, Beckton-Dickinson and Company). The antibiotics used were as follows: […] of methicillin, 10 U of penicillin, 30 μg of cefazolin, 20 μg of ampicillin/sulbactam, 15 μg of erythromycin, 10 μg of gentamicin, 30 μg of tetracycline, 30 μg chloramphenicol, 5 μg of rifampin, and 5 μg of ciproflaxin (BBL, Becton Dickinson and Company). Diameters of inhibition zones were read after incubation at 37° C. for 24 h. To perform population analysis, aliquots of overnight cultures were spread onto TSA plates containing increasing concentrations of methicillin. CFU were determined after 48 h of incubation at 37° C. [de Lencastre et al., Antimicrob Agents Chemother. 35:632-639 (1991)].
# (§2) Complementation analysis with plasmid pGCSW-3. Plasmid pGCSW-3 was transformed into S. aureus RN4220 (r-) by electroporation and the electro-transformant SWET3 was used as donor to introduce pGCSW-3 into recipients RUSA315 and RUSA12F.
# SWTD5 (RUSA12F/pGCSW-3) = assay: Standard disk susceptibility, transductant SWTD5; type: cell-based, Staphylococcus aureus; conditions: SWTD5 versus recipient RUSA12F; FIG. 5
# Description: as §1, §2
# [2] = system: staphylococci without the mecA gene; conditions: bacteria without mecA; cited from earlier work
# [3] = system: Tn551 insertional (auxiliary) mutants; assay: Methicillin MIC, Tn551 auxiliary mutants with intact mecA; type: cell-based; conditions: Staphylococcus aureus, read-out: methicillin MIC
# [4] = system: Tn551 insertional (auxiliary) mutants; conditions: cited from earlier work
# [5] = system: mecA Tn551 transposon mutant; conditions: Tn551 inserted into mecA; cited from earlier work
# [6] = system: mutant RUSA315 (femR315::Tn551); assay: Methicillin MIC, Tn551 insertional mutant RUSA315; type: cell-based; conditions: Staphylococcus aureus
# Description: as §1
# MRSA strain COL [7] = conditions: cited from earlier work
# strain COL = conditions: peptidoglycan composition; cited from earlier work
# SWTD3 (RUSA315/pGCSW-3) [8] = assay: Population analysis on methicillin-containing TSA plates, SWTD3; type: cell-based, Staphylococcus aureus; conditions: SWTD3, data not shown
# Description: as §1
# MRSA strain COL [9] = assay: Methicillin MIC, parental highly methicillin resistant strain COL; type: cell-based, Staphylococcus aureus
# Description: as §1
# four staphylococcal PBPs = conditions: in vitro; cited from earlier work
compound,measurement,setting,value
"Cc1nnc(SCC2=C(C(=O)O)N3C(=O)[C@@H](NC(=O)Cn4cnnn4)[C@H]3SC2)s1 [cefazoline, cefazolin]","antimicrobial susceptibility (disk, inhibition zone)",SWTD3 (RUSA315/pGCSW-3) [1],restored resistance
same,"antimicrobial susceptibility (disk, inhibition zone)",SWTD5 (RUSA12F/pGCSW-3),restored resistance
penicillin,"antimicrobial susceptibility (disk, inhibition zone)",SWTD3 (RUSA315/pGCSW-3) [1],restored resistance
same,"antimicrobial susceptibility (disk, inhibition zone)",SWTD5 (RUSA12F/pGCSW-3),restored resistance
COc1cccc(OC)c1C(=O)N[C@@H]1C(=O)N2[C@@H]1SC(C)(C)[C@@H]2C(=O)O [methicillin],methicillin MIC,[2],1 to 2 µg/mL
same,"antimicrobial susceptibility (disk, inhibition zone)",SWTD3 (RUSA315/pGCSW-3) [1],restored resistance
same,MIC,[3],1.5 to 200 µg/mL
same,methicillin MIC,[4]; Tn551 mutants still producing normal amounts of PBP2A,3 µg/mL
same,MIC,"[4]; inactivation of auxiliary genes, PBP2A present",3 mg methicillin per liter
same,MIC,[5],about 4 μg/ml
same,MIC,[6],12 to 25 µg/mL
same,MIC,"[6]; RUSA315, Tn551 insert Ω720, read-out: methicillin MIC",1.5 µg/mL
same,methicillin MIC,MRSA strain COL [7]; highly resistant strain COL,1600 µg/mL
same,MIC,MRSA strain COL [7]; parental bacterium before Tn551 inactivation,1600 µg/mL
same,"critical concentration at which a new cell wall synthetic machinery, presumably PBP2A, takes over",strain COL,about 5 mg/L
same,level of methicillin resistance by population analysis,SWTD3 (RUSA315/pGCSW-3) [8],same level of methicillin resistance as the parental Mc^r strain COL
same,MIC,"MRSA strain COL [9]; Staphylococcus aureus, MRSA, read-out: methicillin MIC",1600 µg/mL
same,methicillin MIC,MRSA strain COL [9]; parental MRSA strain COL,1600 µg/mL
same,"antimicrobial susceptibility (disk, inhibition zone)",SWTD5 (RUSA12F/pGCSW-3),restored resistance
same,methicillin concentration range within which all four normal PBPs become fully acylated,four staphylococcal PBPs,5 to 10 mg/L
ampicillin/sulbactam [ampicillinisulbactam],"antimicrobial susceptibility (disk, inhibition zone)",SWTD3 (RUSA315/pGCSW-3) [1],restored resistance
same,"antimicrobial susceptibility (disk, inhibition zone)",SWTD5 (RUSA12F/pGCSW-3),restored resistance
